Assay results from ChEMBL document CHEMBL1201862, “PubChem BioAssay data set” (2004).
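Five concentrations, 48 hours, 96-well plates. GI50 is the concentration that inhibits growth by half.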 Active and inactive are the calls of the source. Rule as the data show it: active = GI50 up to about 1.1 µM and inactive = higher.

Key:
Experiment in all cases: NCI anticancer screen, dose series, 48 h
786-0 = test system: 786-0
COLO 205 = test system: COLO 205
DU-145 = test system: DU-145
HCT-116 = test system: HCT-116
Hs-578T = test system: Hs-578T
LOX IMVI = test system: LOX IMVI
MCF7 = test system: MCF7
NCI-H23 = test system: NCI-H23
NCI-H460 = test system: NCI-H460
NCI/ADR-RES = test system: NCI/ADR-RES
RXF 393 = test system: RXF 393
SK-MEL-5 = test system: SK-MEL-5
SK-OV-3 = test system: SK-OV-3
SNB-19 = test system: SNB-19
SNB-75 = test system: SNB-75
SR = test system: SR
SW-620 = test system: SW-620
TK-10 = test system: TK-10
UACC-257 = test system: UACC-257
UACC-62 = test system: UACC-62

| Structure (SMILES) | GI50 (786-0) | GI50 (COLO 205) | GI50 (DU-145) | GI50 (HCT-116) | GI50 (Hs-578T) | GI50 (LOX IMVI) | GI50 (MCF7) | GI50 (NCI-H23) | GI50 (NCI-H460) | GI50 (NCI/ADR-RES) | GI50 (RXF 393) | GI50 (SK-MEL-5) | GI50 (SK-OV-3) | GI50 (SNB-19) | GI50 (SNB-75) | GI50 (SR) | GI50 (SW-620) | GI50 (TK-10) | GI50 (UACC-257) | GI50 (UACC-62) |
| --- | --- | --- | --- | --- | --- | --- | --- | --- | --- | --- | --- | --- | --- | --- | --- | --- | --- | --- | --- | --- |
| O=C(O)C(O)C(O)C(O)C(O)CO.[Ba+2] (stereo unspecified) | > 100 µM (inactive) | > 100 µM (inactive) | > 100 µM (inactive) | > 100 µM (inactive) | > 100 µM (inactive) | > 100 µM (inactive) | > 100 µM (inactive) | > 100 µM (inactive) | > 100 µM (inactive) | > 100 µM (inactive) | > 100 µM (inactive) | > 100 µM (inactive) | > 100 µM (inactive) | > 100 µM (inactive) | > 100 µM (inactive) | > 100 µM (inactive) | > 100 µM (inactive) | > 100 µM (inactive) | > 100 µM (inactive) | > 100 µM (inactive) |
| C[C@]12C(=O)C=CCC1=CC[C@@H]1[C@@H]2[C@H]2CC3(O)C(=O)O[C@@]4(C)[C@H]5C[C@@]6(C)[C@@H]7[C@@]2(O)[C@]1(OC[C@H]6C(=O)O5)O[C@]734 (stereo partly specified) | 34.5 µM (inactive) | 39.6 µM (inactive) | 58.2 µM (inactive) | 31.8 µM (inactive) | 51.1 µM (inactive) | 27.4 µM (inactive) | 31.7 µM (inactive) | 24.2 µM (inactive) | 35.8 µM (inactive) | > 100 µM (inactive) | 20.2 µM (inactive) | 50 µM (inactive) |  | 62.4 µM (inactive) | 54.7 µM (inactive) | 28.4 µM (inactive) | 35.2 µM (inactive) | 93.8 µM (inactive) | 59.4 µM (inactive) | 26.4 µM (inactive) |
| CCCOc1cc2c(cc1O)CC[C@@H]1[C@@H]2CC[C@]2(C)[C@@H](O)CC[C@@H]12 | 3.63 µM (inactive) | 12 µM (inactive) | 3.27 µM (inactive) | 1.64 µM (inactive) | 1.55 µM (inactive) | 2.74 µM (inactive) | 2.18 µM (inactive) | 3.37 µM (inactive) | 1.62 µM (inactive) | 1.17 µM (inactive) | 2.25 µM (inactive) | 2.12 µM (inactive) | 3.04 µM (inactive) | 6.71 µM (inactive) | 2.36 µM (inactive) | 0.209 µM (active) | 1 µM (active) | 7.5 µM (inactive) | 5.04 µM (inactive) | 1.2 µM (inactive) |
| Cc1sc(Nc2ccc(Nc3nc(-c4ccccc4)c(C)s3)cc2)nc1-c1ccccc1 | 21.2 µM (inactive) | 16.2 µM (inactive) | 74 µM (inactive) | 62.2 µM (inactive) | > 100 µM (inactive) | 40.6 µM (inactive) | 21.8 µM (inactive) | 28.7 µM (inactive) | 18.2 µM (inactive) | 41.4 µM (inactive) | 8.67 µM (inactive) | 22.6 µM (inactive) | > 100 µM (inactive) | > 100 µM (inactive) | 48.4 µM (inactive) | 20.9 µM (inactive) | 40.2 µM (inactive) | 57.8 µM (inactive) | 43.1 µM (inactive) | 54.3 µM (inactive) |
| O=C(CN1CCOCC1)c1ccc2[nH]c(=O)oc2c1 | > 100 µM (inactive) | > 100 µM (inactive) | > 100 µM (inactive) | > 100 µM (inactive) | > 100 µM (inactive) | > 100 µM (inactive) | > 100 µM (inactive) | > 100 µM (inactive) | > 100 µM (inactive) | > 100 µM (inactive) | > 100 µM (inactive) | > 100 µM (inactive) | > 100 µM (inactive) | > 100 µM (inactive) | 77.4 µM (inactive) | > 100 µM (inactive) | > 100 µM (inactive) | > 100 µM (inactive) | > 100 µM (inactive) | > 100 µM (inactive) |
| OCc1ccc2c(c1)CC1(C2)Cc2cc3c(cc2C1O)CCC3 (stereo unspecified) | 5.64 µM (inactive) | 3.17 µM (inactive) | 9.1 µM (inactive) | 3.37 µM (inactive) | 2.71 µM (inactive) | 5.18 µM (inactive) | 3.66 µM (inactive) | 5.35 µM (inactive) | 3.28 µM (inactive) | 2.58 µM (inactive) | 2.77 µM (inactive) | 3.04 µM (inactive) | 8.75 µM (inactive) | 4.97 µM (inactive) | 3.85 µM (inactive) | 2.33 µM (inactive) | 4.55 µM (inactive) | 21.9 µM (inactive) | 2.3 µM (inactive) | 3.72 µM (inactive) |
| Cc1sc2nc(N(C)C)oc(=O)c2c1C | > 100 µM (inactive) | > 100 µM (inactive) | > 100 µM (inactive) | > 100 µM (inactive) | > 100 µM (inactive) | > 100 µM (inactive) | > 100 µM (inactive) | > 100 µM (inactive) | > 100 µM (inactive) | 70 µM (inactive) | 25 µM (inactive) | 72.4 µM (inactive) | > 100 µM (inactive) | > 100 µM (inactive) | 34.5 µM (inactive) | 40.8 µM (inactive) | > 100 µM (inactive) | > 100 µM (inactive) | > 100 µM (inactive) | > 100 µM (inactive) |
| c1ccc(C[n+]2ccc3c(c2)CCCC3)cc1 | > 100 µM (inactive) | 66.5 µM (inactive) | > 100 µM (inactive) | 93.1 µM (inactive) | 49.9 µM (inactive) | 92.7 µM (inactive) | 52.1 µM (inactive) | 39.4 µM (inactive) | 78.7 µM (inactive) | > 100 µM (inactive) | > 100 µM (inactive) | 19.6 µM (inactive) | > 100 µM (inactive) | 49.5 µM (inactive) | 54.1 µM (inactive) | > 100 µM (inactive) | > 100 µM (inactive) | > 100 µM (inactive) | 33.8 µM (inactive) | > 100 µM (inactive) |
| CCCCN1C(=O)C[C@H]2[C@@H]3CCc4cc(OCCN5CCCC5)ccc4[C@H]3CC[C@]2(C)C1=O | 2.88 µM (inactive) | 1.92 µM (inactive) | 13.9 µM (inactive) | 3.64 µM (inactive) | 13.2 µM (inactive) | 3.19 µM (inactive) | 5.65 µM (inactive) | 11.4 µM (inactive) | 5.79 µM (inactive) | 14.7 µM (inactive) | 1.89 µM (inactive) | 5.94 µM (inactive) | 13.9 µM (inactive) | 12.6 µM (inactive) | 3.4 µM (inactive) | 3.79 µM (inactive) | 11.5 µM (inactive) | 14.6 µM (inactive) | 4.38 µM (inactive) | 3.72 µM (inactive) |
| Cn1ccnc1Sc1ccc(/C=N\NC(=O)c2cccc(F)c2)cc1[N+](=O)[O-] | 31.9 µM (inactive) | > 100 µM (inactive) | 71.6 µM (inactive) | 83.9 µM (inactive) | 24.2 µM (inactive) | > 100 µM (inactive) | 27.8 µM (inactive) | 47.2 µM (inactive) | > 100 µM (inactive) | 79.3 µM (inactive) | 34.8 µM (inactive) | 56.4 µM (inactive) | 33.5 µM (inactive) | 27.8 µM (inactive) | 27 µM (inactive) | 33.2 µM (inactive) | > 100 µM (inactive) | > 100 µM (inactive) | > 100 µM (inactive) | 89.1 µM (inactive) |
| CC(NC(=O)C(N)CC(=O)O)NC(=O)N(C)C(C)(C)C (stereo unspecified) | > 100 µM (inactive) | > 100 µM (inactive) | > 100 µM (inactive) | > 100 µM (inactive) | > 100 µM (inactive) | > 100 µM (inactive) | > 100 µM (inactive) | > 100 µM (inactive) | > 100 µM (inactive) | > 100 µM (inactive) | > 100 µM (inactive) | > 100 µM (inactive) | > 100 µM (inactive) | > 100 µM (inactive) | > 100 µM (inactive) | > 100 µM (inactive) | > 100 µM (inactive) | > 100 µM (inactive) | > 100 µM (inactive) | > 100 µM (inactive) |
| COc1cccc(-c2cc(O)c3c(C)cc(C)nc3n2)c1 | 0.435 µM (active) | 0.21 µM (active) | 1.21 µM (inactive) | 0.395 µM (active) | 0.538 µM (active) | 0.703 µM (active) | 0.442 µM (active) | 0.746 µM (active) | 0.455 µM (active) | 1.13 µM (inactive) | 1.29 µM (inactive) | 0.301 µM (active) | 0.468 µM (active) | 0.714 µM (active) | 0.167 µM (active) | 0.136 µM (active) | 0.333 µM (active) | 40.8 µM (inactive) |  | 0.448 µM (active) |
| COC(=O)/C(C#N)=C(/NCc1ccccc1)Nc1ccccc1 | 92.5 µM (inactive) | 73.1 µM (inactive) | > 100 µM (inactive) | 63 µM (inactive) | 68.5 µM (inactive) | 61.2 µM (inactive) | > 100 µM (inactive) | > 100 µM (inactive) | 77.4 µM (inactive) | 51.1 µM (inactive) | > 100 µM (inactive) | 64 µM (inactive) | > 100 µM (inactive) | > 100 µM (inactive) | 37.3 µM (inactive) | 53.8 µM (inactive) | > 100 µM (inactive) | > 100 µM (inactive) | 82.8 µM (inactive) |  |
| Cc1cc(N)ccc1/N=N\c1ccc(S(=O)(=O)CCOS(=O)(=O)O)cc1 | 0.414 µM (active) | 2.07 µM (inactive) | 26 µM (inactive) | 0.34 µM (active) | 5.08 µM (inactive) | 0.343 µM (active) | 0.614 µM (active) | 0.7 µM (active) | 3.44 µM (inactive) | 0.41 µM (active) | 10.8 µM (inactive) | 0.287 µM (active) |  | 4.72 µM (inactive) | 1.04 µM (active) | 0.488 µM (active) | 0.368 µM (active) | 14 µM (inactive) | 11.1 µM (inactive) | 1.57 µM (inactive) |
